Experimental data taken from patent publication EP4664463A1, “COMPUTER-IMPLEMENTED METHOD FOR OLFACTORY PROPERTY PREDICTION” (Givaudan SA, priority 2024, dated 2025).
Numbering of substitutions follows the chain as printed. Where two headings read alike, the source gives them in different places. One block for each molecule: values may come before it.

Assays:
OR5B12 [1] = biological target: T1, OR5B12 (Homo sapiens, UniProt Q96R08); test: cell-based; format: cell-based; settings: wild-type; for EC50: read-out: Potency EC50
T1 construct: expressed in transfected cells; host or cells: HEK293T cells stably expressing human RTP1S (V227I) and RTP2 (L220R)
T1 sequence (Q96R08 1-314): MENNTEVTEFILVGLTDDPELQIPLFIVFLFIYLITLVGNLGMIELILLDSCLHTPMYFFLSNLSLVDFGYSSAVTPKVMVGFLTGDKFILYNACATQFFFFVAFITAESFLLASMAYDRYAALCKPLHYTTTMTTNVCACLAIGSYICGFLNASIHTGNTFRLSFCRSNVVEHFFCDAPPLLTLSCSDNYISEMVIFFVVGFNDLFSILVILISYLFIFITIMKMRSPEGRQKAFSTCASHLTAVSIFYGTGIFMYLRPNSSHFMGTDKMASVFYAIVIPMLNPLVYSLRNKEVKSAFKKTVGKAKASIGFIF
Source text: (§1) To create an expression plasmid, an OR coding sequence fused at the end of TM7 to the desired C-terminus sequence was synthesized by a DNA synthesis service provider (BioCat GmbH, Germany) and inserted into pcDNA3.1(+) (Invitrogen, MA, USA) downstream of the CMV promoter sequence (SEQ ID NO: 82) using BamHI and Notl restriction sites. All the synthetic OR nucleotide sequences described below in Examples 1-15 further contained at their N-terminus a nucleotide sequence encoding a signal peptide (mmLucy-FLAG-rho, SeQ ID NOs: 80, 81) and at the C-terminus the bgh terminator sequence (SEQ ID NO: 83). All the OR expression plasmids also contain a Kozak sequence (GCCACC) between the BamHI restriction site and the start codon of the signal peptide. These plasmids thus contain a constitutively expressed OR gene.

OR5B12 [2] = biological target: T2, OR5B12 (Homo sapiens, UniProt Q96R08); test: cell-based; format: cell-based; settings: for EC50: changed C-term SEQ ID NO: 86, read-out: Potency EC50; for Detection threshold; concentration for 2-fold induction: changed C-term. SEQ ID NO: 86
T2 construct: expressed in transfected cells; host or cells: HEK293T cells stably expressing human RTP1S (V227I) and RTP2 (L220R)
T2 sequence (Q96R08 with tags, fused parts or gaps): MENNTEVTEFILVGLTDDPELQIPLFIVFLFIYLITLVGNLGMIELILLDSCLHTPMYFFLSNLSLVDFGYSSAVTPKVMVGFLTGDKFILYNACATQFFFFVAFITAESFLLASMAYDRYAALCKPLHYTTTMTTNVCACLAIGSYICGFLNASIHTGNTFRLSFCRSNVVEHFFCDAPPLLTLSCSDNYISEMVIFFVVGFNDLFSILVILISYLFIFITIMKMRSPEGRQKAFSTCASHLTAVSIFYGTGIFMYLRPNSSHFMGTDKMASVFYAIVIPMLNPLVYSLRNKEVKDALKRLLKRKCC
Source text: as §1

OR5B12 [3] = test: cell-based; format: cell-based, human
Source text: as §1

OR2M2 = test: Activation of modified OR2M2 by sulfur compounds in presence of copper (luciferase); format: cell-based, human; settings: modified C-terminus
Source text: The most pungent odorant in human axillary sweat with an ODT of 1 picogram / L air is 3-methyl-3-sulfanyl-hexanol (also known as 3-methyl-3-mercapto-hexanol) (Natsch et al. identification of Odoriferous Sulfanylalkanols in Human Axilla Secretions and Their Formation through Cleavage of Cysteine Precursors by a C-S Lyase Isolated from Axilla bacteria. […] 2004; 1:1058-1072). So far, no OR has been described which can selectively detect this key odorant leading to undesired axilla odor in human subjects. By screening a library of receptor variants with the C-terminal sequence SEQ ID NO: 86 in presence of copper against a library of 52 sulfur compounds (see example 5), a hitherto orphan receptor, OR2M2, was identified, which is activated by 3-methyl-3-mercapto-hexanol and closely related chemicals, but not by other sulfur odorants (Figure 19).

OR56A4 = biological target: T3, OR56A4 (Homo sapiens, UniProt Q8NGH8); test: cell-based; format: cell-based; settings: wild-type
T3 construct: expressed in transfected cells; host or cells: HEK293T stably expressing human RTP1S(V227I) and RTP2(L220R)
T3 sequence (Q8NGH8 1-313): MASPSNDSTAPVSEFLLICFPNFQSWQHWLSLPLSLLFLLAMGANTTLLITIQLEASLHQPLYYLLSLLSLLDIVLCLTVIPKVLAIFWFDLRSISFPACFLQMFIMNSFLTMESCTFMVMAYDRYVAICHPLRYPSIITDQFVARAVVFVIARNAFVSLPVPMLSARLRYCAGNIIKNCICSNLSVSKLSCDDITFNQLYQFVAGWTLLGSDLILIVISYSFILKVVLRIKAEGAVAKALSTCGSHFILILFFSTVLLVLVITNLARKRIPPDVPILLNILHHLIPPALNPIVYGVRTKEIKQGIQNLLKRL
Source text: as §1
Activation of OR56A4 by acids of different chain length was further tested. […] Replacing the wild-type with the C-terminal sequence of the functional OR51 E1 did reduce activity. However, using the optimized sequence form Examples 1-5 led to a strong signal and much lower detection threshold upon addition of all three acids.

OR10J5 [4] = test: cell-based; format: cell-based, human
Source text: as §1

OR10J5 [5] = biological target: T4, OR10J5 (Homo sapiens, UniProt Q8NHC4); test: cell-based; format: cell-based
T4 construct: expressed in transfected cells; host or cells: HEK293T cells stably expressing human RTP1S (V227I) and RTP2 (L220R)
T4 sequence (Q8NHC4 1-309): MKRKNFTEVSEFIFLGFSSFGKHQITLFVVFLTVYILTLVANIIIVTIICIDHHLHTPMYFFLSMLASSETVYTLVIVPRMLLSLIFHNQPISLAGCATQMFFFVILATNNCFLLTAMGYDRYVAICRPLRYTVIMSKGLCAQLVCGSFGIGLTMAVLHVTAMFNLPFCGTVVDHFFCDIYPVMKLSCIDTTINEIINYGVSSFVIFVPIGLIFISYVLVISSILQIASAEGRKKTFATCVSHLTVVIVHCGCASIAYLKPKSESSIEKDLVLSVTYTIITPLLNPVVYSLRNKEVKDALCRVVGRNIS
Source text: as §1

OR10J5 [6] = biological target: T5, OR10J5 (Homo sapiens, UniProt Q8NHC4); test: cell-based; format: cell-based; remark: listed apart in the source
T5 construct: expressed in transfected cells; host or cells: HEK293T cells stably expressing human RTP1S (V227I) and RTP2 (L220R)
T5 sequence (Q8NHC4 with tags, fused parts or gaps): T4 sequence (Q8NHC4 1-309) with C301K, V303L, V304L, G305K, N307K, I308C, S309C
Source text: as §1

OR7D4 = biological target: T6, OR7D4 (Homo sapiens, UniProt Q8NG98, D296E/E302K/G299D); test: cell-based; format: cell-based; settings: for EC50: read-out: Potency EC50
T6 construct: expressed in transfected cells; host or cells: HEK293T cells stably expressing human RTP1S (V227I) and RTP2 (L220R)
T6 sequence (Q8NG98 with tags, fused parts or gaps D296E/G299D/E302K limits assumed): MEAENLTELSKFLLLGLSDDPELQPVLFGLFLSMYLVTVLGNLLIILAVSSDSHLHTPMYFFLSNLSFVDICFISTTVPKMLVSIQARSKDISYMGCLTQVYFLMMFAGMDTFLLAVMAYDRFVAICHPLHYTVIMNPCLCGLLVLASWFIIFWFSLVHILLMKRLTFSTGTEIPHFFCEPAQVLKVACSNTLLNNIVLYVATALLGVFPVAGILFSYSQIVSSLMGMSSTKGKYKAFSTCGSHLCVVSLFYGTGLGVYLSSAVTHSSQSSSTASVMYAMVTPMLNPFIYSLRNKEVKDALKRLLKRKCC
Source text: as §1
Similarly, in Figure 7 the dose-response of OR7D4 is shown when tested both with androstenone and the closely related molecule androstenol. […] Thus, a better understanding of the receptive space of OR7D4 is possible based on the improved sensitivity of the assay provided by the modified variant.

Compound: CCCCCC1C(=O)CCC1CC(=O)OC (stereo not shown) [Hedione HC]
Detection threshold; concentration for 2-fold induction (OR5B12 [1]): 96 µM
EC50 (OR5B12 [1]): 69 µM
EC50 (OR5B12 [2]): 18.3 µM
Detection threshold; concentration for 2-fold induction (OR5B12 [2]): 8.8 µM
Comments on efficacy (OR5B12 [3]): 4-fold lower maximal induction for wild-type
Fold-improvement potency (OR5B12 [3]): 3.8
Fold-improvement threshold (OR5B12 [3]): 11

activation of OR2M2 (OR2M2): activated
Compound: CC1=CCC(C(C)(C)S)CC1 (stereo not shown) [1-p-Menthene-8-thiol]

Compound: CCCCCCCCC(=O)O [nonanoic acid]
activation of wild-type OR56A4 (OR56A4): not

activation of wild-type OR56A4 (OR56A4): activated at high concentration
Compound: CCCCCCCCCC(=O)O [decanoic acid]

EC50 (OR10J5 [5]; wild-type, read-out: Potency EC50): > 31 µM
Detection threshold; concentration for 2-fold induction (OR10J5 [6]): 5.64 µM
EC50 (OR10J5 [6]; changed C-term SEQ ID NO: 86, read-out: Potency EC50): 6.2 µM
Compound: Cc1cc(CC(C)C)ccc1CCC=O [Nympheal, 3-(4-isobutyl-2-methylphenyl)propanal]
Comments on efficacy (OR10J5 [4]): Only 1.8-fold induction for WT, but 5.5-fold for changed C-terminus
Fold-improvement potency (OR10J5 [4]): >>6
Fold-improvement threshold (OR10J5 [4]): >>6
Detection threshold; concentration for 2-fold induction (OR10J5 [5]): n.i. (>31 µM, at cytotoxic dose)

Compound: C[C@]12CCC(=O)C[C@@H]1CC[C@@H]1[C@@H]2CC[C@]2(C)C=CC[C@@H]12 [Androstenone]
Comments on efficacy (OR7D4): 3-fold lower maximal induction for wild-type
Fold-improvement potency (OR7D4): 66
EC50 (OR7D4; changed C-term SEQ ID NO: 86): 0.13 µM
EC50 (OR7D4; wild-type): 8.44 µM

Compound: CCCCCC1C(=O)CCC1CC(=O)OC (stereo not shown) [Hedione]
Detection threshold; concentration for 2-fold induction (OR5B12 [1]): n.i. >>( 250) µM
EC50 (OR5B12 [1]): > 250 µM
EC50 (OR5B12 [2]): 58.3 µM
Detection threshold; concentration for 2-fold induction (OR5B12 [2]): 29 µM
Comments on efficacy (OR5B12 [3]): Induction wild-type only 1.75-fold
Fold-improvement potency (OR5B12 [3]): >5
Fold-improvement threshold (OR5B12 [3]): >9
